From patent US10632106B2, “Methods of cancer treatment with 2-(1′H-Indole-3′-carbonyl)-thiazole-4-carboxylic acid methyl ester” (Ariagen, Inc., priority 2009, dated 2020)

Key:
Format in all cases: in vivo
[1] = system: human prostate cancer cell line LNCaP xenografts; assay: LNCaP xenograft growth inhibition in nude mice; details: 20 mg/kg b.w. i.p. once daily
Protocol: (§1) All the procedures related to animal handling, care, and the treatment in the study were performed following guidelines approved by an Institutional Animal Care and Use Committee (IACUC) of Crown Bioscience, Inc. (Santa Clara, Calif., USA, a contract research organization we hired) based on the guidance of the Association for Assessment and Accreditation of Laboratory Animal Care (AAALAC). Animals were checked for any effects of tumor growth and drug treatment on normal behavior such as mobility, food and water consumption, body weight gain/loss (gross body weights were measured twice weekly), eye/hair matting, and any other abnormal effect. Death and observed clinical signs were recorded on the basis of the number of animals within each group. Individual animals with a tumor volume exceeding 3,000 mm^3 or animals of a group with a mean tumor volume exceeding 2,000 mm^3 were euthanized. In addition, animals showing signs of severe distress and/or pain, dropping body weight more than 20% from that at the start of treatment, or losing the capability of accessing adequate food or water were humanely sacrificed.
The human prostate cancer cell line LNCaP (ATCC, American Type Culture Collection, Manassas, Va., USA) were maintained in vitro as monolayer culture in RPMI-1640 medium supplemented with 10% fetal bovine serum (FBS), 100 U/ml penicillin, 100 μg/ml streptomycin, and 2 mM L-glutamine at 37° C. in an atmosphere of 5% CO2 in air. The tumor cells were routinely subcultured twice a week. The cells growing in an exponential phase were harvested and counted for tumor inoculation.
(§2) Each mouse was inoculated subcutaneously at the right flank with the LNCaP cells (1×10^7) in 0.1 ml of PBS for tumor development. When a mean tumor volume reached around 150 mm^3, the tumor-bearing mice were divided into homogeneous blocks based on their tumor volumes followed by a randomization of mice in each block into treatment groups (thus minimizing variations in tumor response to treatments due to the differential in initial mean tumor volumes). Each treatment group was consisted of 8 tumor-bearing mice. Vehicle (DMSO) or ITE in the vehicle at specified doses were administered to the mice by either i.p. (intraperitoneal) or p.o. (oral) injection once or twice daily for 28 continuous days as indicated.
(§3) Tumor volume was measured twice weekly in two dimensions using a caliper and the volume was calculated with a formula of: V=0.5 a×b^2, where a and b are the long and short diameter (in mm) of a tumor, respectively. The tumor volume was then used for calculations of both TGI (Tumor Growth Inhibition) and TGD (Tumor Growth Delay). The TGI was determined by: TGI=ΔT/ΔC×100%, where ΔT was a difference between the mean tumor volume at a specified day of observation and that at the day treatment starts (day 1) for a drug treated group whereas ΔC was the same difference measured for the control group. The TGD was calculated as: TGD=T−C, where T was the time (in days) required for tumors in a drug treated group to reach a predetermined mean tumor volume and C the time (in days) in the control group to reach the same volume. A tumor weight was derived by equating 1,000 mm^3 in volume to 1,000 mg in weight. A net body weight was then derived by subtracting a tumor weight from a corresponding gross body weight with the tumor.
(§4) Summary statistics, including mean and the standard error of the mean (SEM), are provided for the tumor volume of each group at each time point. Statistical analysis of difference in tumor volume among groups was conducted on a data set either at the best therapeutic time point or at the final dosing day as indicated. The tumor volume data were log-transformed and evaluated using a one-way ANOVA followed by Tukey's test when significance was observed. All data were analyzed using SPSS 16.0 and p<0.05 was considered to be statistically significant.

[2] = system: human liver cancer cell line HepG2 xenografts; assay: HepG2 xenograft growth inhibition in nude mice
Protocol: as §1, §2, §3, §4
(§5) The culture and inoculation of human prostate cancer cell line LNCaP were as described in Example 1. The manipulation for human liver cancer cell line HepG2 (ATCC) was similar as that for LNCaP except that DMEM (instead of RPMI-1640) medium was used, the L-glutamine was not used, and 2×10^6 cells were used for inoculation into female nude mice. The handling of human ovarian cancer cell line OVCAR-3 (ATCC) was the same as that of LNCaP except that the DMEM medium was used and 5×10^6 cells were used for inoculation into female nude mice. […]

[3] = system: human ovarian cancer cell line OVCAR-3 xenografts; assay: OVCAR-3 xenograft growth inhibition in nude mice
Protocol: as §1, §2, §3, §4, §5

[4] = 80 mg/kg i.p. once daily, at a tumor volume of 800 mm^3
[5] = female, nude, mouse, in vivo, 32 day

SMILES: CCC(=O)c1csc(C(=O)c2c[nH]c3ccccc23)n1 [ITK]
- TGD (Tumor Growth Delay) ([1]; at a tumor volume of 1,000 mm^3): 16 days
- TGI (Tumor Growth Inhibition) ([1]; day 28, TGI=ΔT/ΔC×100%): 51%
- net body weight loss ([2]; 80 mg/kg i.p. once daily): no obvious net body weight loss
- TGD (Tumor Growth Delay) [2, 4]: 26 days
- TGI (Tumor Growth Inhibition) ([2]; 80 mg/kg i.p. once daily, day 22, TGI=ΔT/ΔC×100%): 22%
- mice died [2, 5]: 1 out of 8
- net body weight loss ([3]; 80 mg/kg i.p. once daily): no obvious net body weight loss
- TGD (Tumor Growth Delay) [3, 4]: 13 days
- TGI (Tumor Growth Inhibition) ([3]; 80 mg/kg i.p. once daily, day 33, TGI=ΔT/ΔC×100%): 46%
- mice died [3, 5]: 1 out of 8
